Laboratory results published in patent US20210255193A1, “LYSINE REACTIVE PROBES AND USES THEREOF” (The Scripps Research Institute, priority 2017, published 2021).

What was measured:
Assay in all cases: competitive isoTOP-ABPP
Format in all cases: binding
[1] = target: T1, SOD2 Superoxide dismutase (Homo sapiens, UniProt P04179); conditions: for isoTOP-ABPP ratio, lysine P04179_K68: 50 uM_231_sol_in vitro; for isoTOP-ABPP ratio (R) at liganded lysine P04179_K68: sol, 231
T1 construct: isoTOP-ABPP experiments performed in cell lysates (in vitro); endogenous in cells; host or cells: MDA-MB-231 soluble lysate
T1 sequence (P04179 25-222): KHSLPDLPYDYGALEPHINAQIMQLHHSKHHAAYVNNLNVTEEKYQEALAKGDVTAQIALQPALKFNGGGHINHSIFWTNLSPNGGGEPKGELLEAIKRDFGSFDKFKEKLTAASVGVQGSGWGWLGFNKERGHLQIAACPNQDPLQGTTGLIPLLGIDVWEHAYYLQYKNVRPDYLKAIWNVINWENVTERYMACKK
Summary of the method: (§1)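 Readout: isotopic light/heavy MS1 peak-area ratio (R, DMSO heavy over compound light), median across peptides sharing a modified lysine. Lysate received fragment (activated esters 50 μM, guanidinylating agents 100 μM final) or DMSO, then 0.1 mM STP-alkyne probe for 1 h at ambient temperature.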

[2] = target: T2, SLC25A5 ADP/ATP translocase 2 (Homo sapiens, UniProt P05141); conditions: for isoTOP-ABPP ratio (R) at liganded lysine P05141_K23 / isoTOP-ABPP reactivity ratio at lysine P05141_K23: 50 uM, in vitro; for isoTOP-ABPP ratio (R) at liganded lysine P05141_K23: sol, 231; for isoTOP-ABPP ratio, lysine P05141_K23: 50 uM_231_sol_in vitro; for isoTOP-ABPP reactivity ratio at lysine P05141_K23: 231 sol
T2 construct: isoTOP-ABPP experiments performed in cell lysates (in vitro); endogenous in cells; host or cells: MDA-MB-231 soluble lysate
T2 sequence (P05141 1-298): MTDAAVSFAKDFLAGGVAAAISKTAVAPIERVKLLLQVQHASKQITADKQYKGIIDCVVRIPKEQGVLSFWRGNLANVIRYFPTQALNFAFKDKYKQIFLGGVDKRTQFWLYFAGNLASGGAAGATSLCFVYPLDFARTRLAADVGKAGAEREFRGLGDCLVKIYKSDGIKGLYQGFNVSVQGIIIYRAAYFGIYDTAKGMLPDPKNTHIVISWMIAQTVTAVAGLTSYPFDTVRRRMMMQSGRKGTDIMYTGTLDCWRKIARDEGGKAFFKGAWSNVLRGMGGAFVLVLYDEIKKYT
Summary of the method: as §1

[3] = target: T3, DNMT1 DNA (cytosine-5)-methyltransferase 1 (Homo sapiens, UniProt P26358); conditions: for isoTOP-ABPP ratio, lysine P26358_K45: 50 uM_231_sol_in vitro
T3 construct: isoTOP-ABPP experiments performed in cell lysates (in vitro); endogenous in cells; host or cells: soluble proteome of human cancer cell lines (MDA-MB-231; Ramos and Jurkat also prepared)
T3 sequence (P26358 whole entry): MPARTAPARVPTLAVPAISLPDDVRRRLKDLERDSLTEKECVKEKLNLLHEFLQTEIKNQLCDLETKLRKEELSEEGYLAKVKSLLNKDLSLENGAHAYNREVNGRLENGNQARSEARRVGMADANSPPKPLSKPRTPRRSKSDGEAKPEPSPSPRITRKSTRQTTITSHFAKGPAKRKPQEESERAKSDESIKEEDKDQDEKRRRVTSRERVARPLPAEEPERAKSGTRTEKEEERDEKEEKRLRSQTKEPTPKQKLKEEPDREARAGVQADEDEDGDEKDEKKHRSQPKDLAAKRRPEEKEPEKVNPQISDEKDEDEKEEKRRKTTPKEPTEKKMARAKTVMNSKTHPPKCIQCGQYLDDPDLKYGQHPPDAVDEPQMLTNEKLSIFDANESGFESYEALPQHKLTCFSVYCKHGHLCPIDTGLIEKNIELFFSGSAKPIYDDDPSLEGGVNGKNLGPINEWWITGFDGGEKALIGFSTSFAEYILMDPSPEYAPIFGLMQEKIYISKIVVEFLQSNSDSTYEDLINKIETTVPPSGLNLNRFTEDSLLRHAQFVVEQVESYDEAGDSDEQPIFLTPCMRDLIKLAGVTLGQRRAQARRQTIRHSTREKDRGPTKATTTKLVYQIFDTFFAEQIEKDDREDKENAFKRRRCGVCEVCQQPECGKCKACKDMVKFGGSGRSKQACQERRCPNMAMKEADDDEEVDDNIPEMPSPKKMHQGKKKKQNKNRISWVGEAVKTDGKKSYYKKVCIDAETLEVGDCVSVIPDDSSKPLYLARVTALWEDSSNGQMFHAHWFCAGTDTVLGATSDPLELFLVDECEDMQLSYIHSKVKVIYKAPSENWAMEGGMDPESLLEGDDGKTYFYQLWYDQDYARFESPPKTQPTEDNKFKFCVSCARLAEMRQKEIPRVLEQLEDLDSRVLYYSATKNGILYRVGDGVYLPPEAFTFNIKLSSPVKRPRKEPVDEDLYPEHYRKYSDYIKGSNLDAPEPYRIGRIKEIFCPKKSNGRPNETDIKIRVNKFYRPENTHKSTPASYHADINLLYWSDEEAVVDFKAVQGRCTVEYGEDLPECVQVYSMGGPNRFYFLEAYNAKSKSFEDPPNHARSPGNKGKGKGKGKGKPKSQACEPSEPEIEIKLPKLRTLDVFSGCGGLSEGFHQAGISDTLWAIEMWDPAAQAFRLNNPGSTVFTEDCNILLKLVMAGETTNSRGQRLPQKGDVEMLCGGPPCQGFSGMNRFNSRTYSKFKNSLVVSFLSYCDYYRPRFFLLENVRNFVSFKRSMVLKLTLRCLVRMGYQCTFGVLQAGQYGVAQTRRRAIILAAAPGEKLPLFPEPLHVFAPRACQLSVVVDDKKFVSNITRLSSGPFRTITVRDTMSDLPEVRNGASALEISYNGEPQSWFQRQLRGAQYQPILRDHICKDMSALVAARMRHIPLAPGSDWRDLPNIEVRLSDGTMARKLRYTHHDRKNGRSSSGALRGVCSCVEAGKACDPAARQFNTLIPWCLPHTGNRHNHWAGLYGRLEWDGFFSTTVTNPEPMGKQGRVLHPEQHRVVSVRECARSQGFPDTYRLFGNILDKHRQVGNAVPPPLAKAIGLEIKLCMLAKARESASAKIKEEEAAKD
Summary of the method: as §1

O=C(CCc1coc2cc(F)ccc2c1=O)Oc1c(F)c(F)c(F)c(F)c1F [fragment 26, Pentafluorophenyl 3-(7-fluoro-4-oxo-4H-chromen-3-yl)propanoate]
isoTOP-ABPP reactivity ratio at lysine P04179_K68 ([1]; 50 uM, 231 sol, in vitro): 1.2

O=C(Oc1ccc([N+](=O)[O-])cc1[N+](=O)[O-])c1ccccc1Nc1cccc(C(F)(F)F)c1 [fragment 40, 2,4-Dinitrophenyl 2-((3-(trifluoromethyl)phenyl)amino)benzoate]
isoTOP-ABPP ratio (R) at liganded lysine P05141_K23 [2]: 0.8

O=C(Oc1ccc([N+](=O)[O-])cc1[N+](=O)[O-])C1CCN(C(=O)OCc2ccccc2)CC1 [fragment 34, 1-Benzyl 4-(2,4-dinitrophenyl) piperidine-1,4-dicarboxylate]
isoTOP-ABPP ratio (R) at liganded lysine P05141_K23 [2]: 1.1

Cn1cc(CC(=O)Oc2c(F)c(F)c(F)c(F)c2F)c2ccccc21 [fragment 22, Pentafluorophenyl 2-(1-methyl-1H-indol-3-yl)acetate]
R value (DMSO/fragment) for probe 1 labeling ([1]; P04179_K68, 50 uM, 231 sol, in vitro): 1.0
R value (DMSO/fragment) for probe 1 labeling ([3]; P26358_K45, 50 uM, 231 sol, in vitro): 0.9

O=C(Oc1c(F)c(F)c(C(F)(F)F)c(F)c1F)c1cc(C(F)(F)F)cc(C(F)(F)F)c1 [fragment 47, 2,3,5,6-Tetrafluoro-4-(trifluoromethyl)phenyl 3,5-bis(trifluoromethyl)benzoate]
isoTOP-ABPP ratio, lysine P05141_K23 [2]: 1.8

O=C(CC12CC3CC(CC(C3)C1)C2)Oc1ccc([N+](=O)[O-])cc1[N+](=O)[O-] [fragment 38, 2,4-Dinitrophenyl 2-(adamantan-1-yl)acetate]
isoTOP-ABPP ratio (R) at liganded lysine P05141_K23 [2]: 1.1

NC(=O)c1cc(C(F)(F)F)cc(C(F)(F)F)c1 [fragment 51, reference compound]
isoTOP-ABPP ratio, lysine P04179_K68 [1]: 0.9

O=C(CN1C(=O)c2ccccc2C1=O)Oc1c(F)c(F)c(F)c(F)c1F [fragment 27, Pentafluorophenyl 2-(1,3-dioxoisoindolin-2-yl)acetate]
isoTOP-ABPP reactivity ratio at lysine P04179_K68 ([1]; 50 uM, 231 sol, in vitro): 0.9

COc1cc(CCC(=O)Oc2ccc([N+](=O)[O-])cc2[N+](=O)[O-])cc(OC)c1OC [fragment 33, 2,4-Dinitrophenyl 3-(3,4,5-trimethoxyphenyl)propanoate]
isoTOP-ABPP reactivity ratio at lysine P26358_K45 ([3]; 50 uM, 231 sol, in vitro): 0.9

O=C(Oc1ccc([N+](=O)[O-])cc1[N+](=O)[O-])C(c1ccccc1)c1ccccc1 [fragment 30, 2,4-Dinitrophenyl 2,2-diphenylacetate]
isoTOP-ABPP reactivity ratio at lysine P04179_K68 ([1]; 50 uM, 231 sol, in vitro): 1.1
isoTOP-ABPP reactivity ratio at lysine P05141_K23 [2]: 2.2

O=C(Oc1ccc([N+](=O)[O-])cc1[N+](=O)[O-])c1cc(C(F)(F)F)cc(C(F)(F)F)c1 [fragment 31, 2,4-Dinitrophenyl 3,5-bis(trifluoromethyl)benzoate]
isoTOP-ABPP reactivity ratio at lysine P04179_K68 ([1]; 50 uM, 231 sol, in vitro): 1.5
isoTOP-ABPP reactivity ratio at lysine P05141_K23 [2]: 1.5

CC(=O)Oc1ccc([N+](=O)[O-])cc1[N+](=O)[O-] [fragment 43, 2,4-Dinitrophenyl acetate]
isoTOP-ABPP ratio (R) at liganded lysine P04179_K68 ([1]; 50 uM, in vitro): 1.4
isoTOP-ABPP ratio (R) at liganded lysine P05141_K23 [2]: 0.9

O=C(Oc1c(F)c(F)cc(F)c1F)c1cc(C(F)(F)F)cc(C(F)(F)F)c1 [fragment 48, 2,3,5,6-Tetrafluorophenyl 3,5-bis(trifluoromethyl)benzoate]
isoTOP-ABPP ratio, lysine P05141_K23 [2]: 1.2
isoTOP-ABPP ratio, lysine P26358_K45 [3]: 1.1

N#Cc1ccc(C(=O)Oc2ccc([N+](=O)[O-])cc2[N+](=O)[O-])cc1 [fragment 44, 2,4-Dinitrophenyl 4-cyanobenzoate]
isoTOP-ABPP ratio, lysine P04179_K68 [1]: 1.6
isoTOP-ABPP ratio, lysine P05141_K23 [2]: 1.1
isoTOP-ABPP ratio, lysine P26358_K45 [3]: 0.7

O=C(Oc1ccc([N+](=O)[O-])cc1[N+](=O)[O-])c1ccc2ccccc2n1 [fragment 35, 2,4-Dinitrophenyl quinoline-2-carboxylate]
isoTOP-ABPP ratio (R) at liganded lysine P05141_K23 [2]: 1.1

CC(C)(C)OC(=O)NCCCC(=O)Oc1ccc([N+](=O)[O-])cc1[N+](=O)[O-] [fragment 41, 2,4-Dinitrophenyl 4-((tert-butoxycarbonyl)amino)butanoate]
isoTOP-ABPP ratio (R) at liganded lysine P04179_K68 ([1]; 50 uM, in vitro): 4.8
isoTOP-ABPP ratio (R) at liganded lysine P05141_K23 [2]: 1.0

O=C(Oc1c(F)c(F)c(F)c(F)c1F)c1ccc2ccccc2n1 [fragment 25, Pentafluorophenyl quinoline-2-carboxylate]
isoTOP-ABPP reactivity ratio at lysine P26358_K45 ([3]; 50 uM, 231 sol, in vitro): 0.9
